Results taken from US20100324086A1, “COMPOUNDS AND METHODS” (Novasaid AB, priority 2008, published 2010).

Target: T1, recombinant, membrane-bound mPGES-1 (Homo sapiens, UniProt O14684)
T1 sequence (O14684 1-152): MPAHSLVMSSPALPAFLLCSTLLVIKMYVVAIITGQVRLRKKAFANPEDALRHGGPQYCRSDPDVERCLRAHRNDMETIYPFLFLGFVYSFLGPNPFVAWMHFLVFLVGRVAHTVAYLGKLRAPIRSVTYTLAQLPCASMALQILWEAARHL
Assay: Thiobarbituric acid assay (TBA-MDA assay), inhibition of mPGES-1
Assay type: biochemical
Settings: remaining PGH2 measured at 535 nm
Description: Malondialdehyde is a product of lipid peroxidation and reacts with thiobarbituric acid forming a red product that absorbs at 535 nm (W. G. Niehaus, Jr and B. Samuelsson, Eur. J. Biochem 6, 126 (1968). The extinction coefficient of the TBA-MDA conjugate is 1.56×10^5 M^−1 cm^−1 (E. D. Wills. Biochem. J. 113, 315 (1969).
The method used for detection of inhibition of mPGES-1 is based on the detection of the amount of remaining PGH2. This method was described more than 20 years ago by Basevich et al (Bioorg. Khim. 1983, 9(5), 658-665.
The assay used was a modified variant and used citric acid instead of the TCA-TBA-HCl reagent described in the original assay. In this assay recombinant, membrane-bound mPGES-1 was incubated with PGH2. The reaction was stopped by adding citric acid with a final pH of 3 and a large excess of FeCl2 (20 mM) to convert any remaining PGH2 into MDA and […]. TBA reagent was finally added (0.67%) and the samples were heated at 80° C. for 30 min. The absorbance of the conjugate was measured at 535 nm.
The product of mPGES-1 (PGE2) was not measured directly in this assay, but rather the remaining substrate (PGH2) indirectly by adding FeCl2 that converts PGH2 into […] and 12-HHT. As a positive control a known mPGES-1 inhibitor, MK-886, was used and the new inhibitors were compared with the inhibition of MK-886 (% of MK-886 inhibition).

IC50 [nM]	SMILES
180	O=C(NC1CCCCCC1)c1cccc(NC(=O)c2ccccc2Br)c1 [Compound 68, 2-Bromo-N-(3-cycloheptylcarbamoyl-phenyl)-benzamide]
3500	O=C(Nc1cccc(C(=O)Nc2ccc3ccccc3n2)c1)c1ccccc1 [Compound 17, 3-Benzoylamino-N-quinolin-2-yl-benzamide]
630	O=C(NC1CCCCCC1)c1cccc(NC(=O)c2c(Cl)cccc2Cl)c1 [Compound 55, 2,6-Dichloro-N-(3-cycloheptylcarbamoyl-phenyl)-benzamide]
75	Cc1cccc(CNC(=O)c2cccc(NC(=O)c3ccccc3C(F)(F)F)c2)c1C [Compound 139, N-(2,3-Dimethyl-benzyl)-3-(2-trifluoromethyl-benzoylamino)-benzamide]
110	O=C(NCc1ccccc1OC(F)(F)F)c1cccc(NC(=O)c2ccccc2C(F)(F)F)c1 [Compound 147, N-(2-Trifluoromethoxy-benzyl)-3-(2-trifluoromethyl-benzoylamino)-benzamide]
1300	O=C(Nc1nc2ccccc2[nH]1)c1cccc(NC(=O)c2ccccc2Cl)c1 [Compound 13, 3-(2-Chloro-benzoylamino)-N-(1H-benzimidazol-2-yl)-benzamide]
220	O=C(NCc1cccc2ccccc12)c1cccc(NC(=O)c2ccccc2I)c1 [Compound 112, 2-Iodo-N-{3-[(naphthalen-1-ylmethyl)-carbamoyl]-phenyl}-benzamide]
2300	C[C@@H](NC(=O)c1cccc(NC(=O)c2ccccc2F)c1)c1cccc2ccccc12 [Compound 88, 2-Fluoro-N-[3-((R)-1-naphthalen-1-yl-ethylcarbamoyl)-phenyl]-benzamide]
290	O=C(Nc1ccc2ccccc2n1)c1cccc(NC(=O)c2ccccc2I)c1 [Compound 46, 3-(2-Iodo-benzoylamino)-N-quinolin-2-yl-benzamide]
230	C[C@@H](NC(=O)c1cccc(NC(=O)c2ccccc2I)c1)c1cccc2ccccc12 [Compound 96, 2-Iodo-N-[3-((R)-1-naphthalen-1-A-ethylcarbamoyl)-phenyl]-benzamide]
320	O=C(NCc1cccc(-c2ccccc2)c1)c1cccc(NC(=O)c2ccccc2C(F)(F)F)c1 [Compound 137, N-(3-Phenyl-benzyl)-3-(2-trifluoromethyl-benzoylamino)-benzamide]
1000	O=C(NCc1cccc2ccccc12)c1cccc(NCc2ccccc2Br)c1 [Compound 122, 3-(2-Bromo-benzylamino)-N-naphthalen-1-ylmethyl-benzamide]
660	O=C(NC1CCCCCC1)c1cccc(NC(=O)c2ccccc2C(F)(F)F)c1 [Compound 56, N-(3-Cycloheptylcarbamoyl-phenyl)-2-trifluoromethylbenzamide]
600	O=C(Nc1ccc2ccccc2n1)c1cccc(NC(=O)c2ccccc2Cl)c1 [Compound 9, 3-(2-Chloro-benzoylamino)-N-(quinolin-2-yl-)-benzamide]
1900	O=C(Nc1ccc2cccc(O)c2n1)c1cccc(NC(=O)c2ccccc2C(F)(F)F)c1 [Compound 140, N-(8-hydroxy-quinolin-2-yl)-3-(2-trifluoromethyl-benzoylamino)-benzamide]
280	O=C(NCc1ccccc1)c1cccc(NC(=O)c2ccccc2C(F)(F)F)c1 [Compound 141, N-(Benzyl)-3-(2-trifluoromethyl-benzoylamino)-benzamide]
860	O=C(NC1CCCc2ccccc21)c1cccc(NC(=O)c2ccccc2Cl)c1 (centres unmarked) [Compound 35, 3-(2-Chloro-benzoylamino)-N-(1,2,3,4-tetrahydro-naphthalen-1-yl)-benzamide]
180	O=C(NCc1cccc2ccccc12)c1cccc(NC(=O)c2ccccc2Br)c1 [Compound 103, 2-Bromo-N-{3-[(naphthalen-1-ylmethyl)-carbamoyl]-phenyl}-benzamide]
990	O=C(NCc1cccc2c1OCCO2)c1cccc(NC(=O)c2ccccc2C(F)(F)F)c1 [Compound 148, N-(2,3-dihydro-benzo[1,4]dioxin-5-ylmethyl)-3-(2-trifluoromethyl-benzoylamino)-benzamide]
1800	O=C(Nc1cccc(CNCc2ccccc2C(F)(F)F)c1)c1ccccc1C(F)(F)F [Compound 125, 2-Trifluoromethyl-N-{3-[(2-trifluoromethyl-benzylamino)-methyl]-phenyl}-benzamide]
390	Cc1ccccc1C(=O)Nc1cccc(C(=O)NC2CCCCCC2)c1 [Compound 57, N-(3-Cycloheptylcarbamoyl-phenyl)-2-methylbenzamide]

IC50 [nM]	SMILES
200	O=C(NCc1ccccc1-c1ccccc1)c1cccc(NC(=O)c2ccccc2C(F)(F)F)c1 [Compound 136, N-(2-Phenyl-benzyl)-3-(2-trifluoromethyl-benzoylamino)-benzamide]
1300	O=C(Nc1ccccn1)c1cccc(NC(=O)c2ccccc2Cl)c1 [Compound 12, 3-(2-Chloro-benzoylamino)-N-(pyridine-2-yl)-benzamide]
650	Cc1ccccc1C(=O)Nc1cccc(C(=O)Nc2ccc3ccccc3n2)c1 [Compound 44, 3-(2-Methyl-benzoylamino)-N-quinolin-2-yl-benzamide]
300	O=C(NC(c1ccccc1)c1ccccc1)c1cccc(NC(=O)c2ccccc2Cl)c1 [Compound 6, 3-(2-Chloro-benzoylamino)-N-(diphenylyl-methyl)-benzamide]
3900	CCCCNC(=O)c1cccc(NC(=O)c2ccccc2Cl)c1 [Compound 4, 3-(2-Chloro-benzoylamino)-N-butyl-benzamide]
6900	COc1cccc(OC)c1C(=O)Nc1cccc(C(=O)NC2CCCCCC2)c1 [Compound 65, N-(3-Cycloheptylcarbamoyl-phenyl)-2,6-dimethoxy-benzamide]
9900	CC(=O)Oc1ccccc1C(=O)Nc1cccc(C(=O)NC2CCCCCC2)c1 [Compound 66, Acetic acid 2-(3-cycloheptylcarbamoyl-phenylcarbamoyl)-phenyl ester]
260	O=C(NC1CCCCCC1)c1cccc(NC(=O)c2ccccc2I)c1 [Compound 69, N-(3-Cycloheptylcarbamoyl-phenyl)-2-iodo-benzamide]
1800	C[C@H](NC(=O)c1cccc(NC(=O)c2ccccc2F)c1)c1cccc2ccccc12 [Compound 73, 2-Fluoro-N-[3-((S)-1-naphthalen-1-yl-ethylcarbamoyl)-phenyl]-benzamide]
290	C[C@@H](NC(=O)c1cccc(NC(=O)c2ccccc2Cl)c1)c1cccc2ccccc12 [Compound 101, 2-Chloro-N-[3-((R)-1-naphthalen-1-yl-ethylcarbamoyl)-phenyl]-benzamide]
380	C[C@@H](NC(=O)c1cccc(NC(=O)c2ccccc2Br)c1)c1cccc2ccccc12 [Compound 87, 2-Bromo-N-[3-((R)-1-naphthalen-1-yl-ethylcarbamoyl)-phenyl]-benzamide]
840	COc1ccccc1CNC(=O)c1cccc(NC(=O)c2ccccc2C(F)(F)F)c1 [Compound 144, N-(2-Methoxy-benzyl)-3-(2-trifluoromethyl-benzoylamino)-benzamide]
4100	COc1cccc(OC)c1C(=O)Nc1cccc(C(=O)N[C@@H](C)c2cccc3ccccc23)c1 [Compound 76, 2,6-Dimethoxy-N-[3-((S)-1-naphthalen-1-yl-ethylcarbamoyl)-phenyl]-benzamide]
170	O=C(NCc1ccccc1N1CCCCC1)c1cccc(NC(=O)c2ccccc2C(F)(F)F)c1 [Compound 146, N-(2-piperidin-1-yl-benzyl)-3-(2-trifluoromethyl-benzoylamino)-benzamide]
3000	CC(=O)Oc1ccccc1C(=O)Nc1cccc(C(=O)Nc2ccc3ccccc3n2)c1 [Compound 50, Acetic acid 2-[3-(quinolin-2-ylcarbamoyl)-phenylcarbamoyl]-phenyl ester]
1000	Cc1ccccc1CNC(=O)c1cccc(NC(=O)c2ccccc2C(F)(F)F)c1 [Compound 142, N-(2-Methyl-benzyl)-3-(2-trifluoromethyl-benzoylamino)-benzamide]
330	Cc1ccccc1C(=O)Nc1cccc(C(=O)NCc2cccc3ccccc23)c1 [Compound 110, N-{3-[(Naphthalen-1-ylmethyl)-carbamoyl]-phenyl}-2-methyl-benzamide]
470	CN(C)c1ccccc1CNC(=O)c1cccc(NC(=O)c2ccccc2C(F)(F)F)c1 [Compound 145, N-(2-Dimethylamino-benzyl)-3-(2-trifluoromethyl-benzoylamino)-benzamide]
800	O=C(Nc1ccc2ccccc2n1)c1cccc(NC(=O)c2c(Cl)cccc2Cl)c1 [Compound 40, 3-(2,6-Chloro-benzoylamino)-N-quinolin-2-yl-benzamide]
3100	COc1cccc(OC)c1C(=O)Nc1cccc(C(=O)Nc2ccc3ccccc3n2)c1 [Compound 42, 3-(2,6-Dimethoxy-benzoylamino)-N-quinolin-2-yl-benzamide]
